For experiment [1], the target named is T1, androgen receptor (AR-LBD) (Rattus norvegicus, UniProt P15207).
T1 construct: 5 μL of 2×AR-LBD/Fluoromone AL Red Complex contained in the kit; purchased Invitrogen
T1 sequence (P15207 651-882 limits assumed): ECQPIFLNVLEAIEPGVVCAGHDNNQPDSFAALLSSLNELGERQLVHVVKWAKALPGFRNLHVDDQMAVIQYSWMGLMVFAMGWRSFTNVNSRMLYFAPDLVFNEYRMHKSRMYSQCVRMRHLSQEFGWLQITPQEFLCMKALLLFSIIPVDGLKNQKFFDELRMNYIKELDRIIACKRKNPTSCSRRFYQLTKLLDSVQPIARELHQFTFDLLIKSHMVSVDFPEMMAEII
In words: Evaluation of androgen receptor affinity (PolarScreen Androgen Receptor Competitor Assay Kit, Red; fluorescence polarization). The following applies: 22° C. for 5 hours, relative to binding rate of 1 μM DHT, read-out: AR affinity (pEC50) (converted). In a few lines:
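Duplicate wells of test compound were mixed with the kit's rat AR-LBD–Fluoromone AL Red tracer complex and left 5 hours at 22 °C before polarization was read. A 4-parameter fit gave pEC50, with binding rate referenced to 1 μM dihydrotestosterone.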
(Fluorescence polarisation rises when a labelled molecule tumbles more slowly, as on binding a larger partner.)

Another experiment concerns the target T2, human androgen receptor (Homo sapiens, UniProt P10275).
T2 construct: expressed in transfected cells; host or cells: HEK293
T2 sequence (P10275 1-920): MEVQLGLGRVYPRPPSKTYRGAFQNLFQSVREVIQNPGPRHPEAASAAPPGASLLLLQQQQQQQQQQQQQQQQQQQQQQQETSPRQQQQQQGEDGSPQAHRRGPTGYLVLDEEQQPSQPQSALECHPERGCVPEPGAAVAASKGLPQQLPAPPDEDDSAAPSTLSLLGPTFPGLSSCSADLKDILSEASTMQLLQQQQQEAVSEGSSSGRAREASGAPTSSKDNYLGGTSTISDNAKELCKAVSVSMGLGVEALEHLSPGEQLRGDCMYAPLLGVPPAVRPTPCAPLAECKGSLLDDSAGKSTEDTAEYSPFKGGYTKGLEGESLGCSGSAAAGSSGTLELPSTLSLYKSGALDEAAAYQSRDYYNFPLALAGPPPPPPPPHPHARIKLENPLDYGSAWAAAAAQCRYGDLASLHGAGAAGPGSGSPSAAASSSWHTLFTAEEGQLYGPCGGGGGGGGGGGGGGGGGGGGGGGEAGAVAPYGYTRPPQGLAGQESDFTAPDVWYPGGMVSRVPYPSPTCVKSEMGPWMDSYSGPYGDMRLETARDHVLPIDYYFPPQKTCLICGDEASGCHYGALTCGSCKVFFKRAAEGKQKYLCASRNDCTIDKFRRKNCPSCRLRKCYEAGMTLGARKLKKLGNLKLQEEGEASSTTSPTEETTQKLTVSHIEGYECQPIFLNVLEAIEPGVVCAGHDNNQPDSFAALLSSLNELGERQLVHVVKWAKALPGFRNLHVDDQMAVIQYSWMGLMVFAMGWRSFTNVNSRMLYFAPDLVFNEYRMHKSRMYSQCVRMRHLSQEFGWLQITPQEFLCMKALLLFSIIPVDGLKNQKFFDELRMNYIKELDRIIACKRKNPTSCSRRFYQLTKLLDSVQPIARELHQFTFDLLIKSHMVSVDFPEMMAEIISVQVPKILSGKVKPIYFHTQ
The experiment in a line: Reporter assay of an androgen receptor responsive sequence (luciferase, transiently transfected HEK293 cells). The format is cell-based. The following applies: 24 hours incubation, relative to activity of 100 nM DHT, read-out: AR transcriptive activity (pEC50) (converted). In a few lines: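 Agonism scored as pEC50, fitted by 4-parameter curve against the response to 100 nM DHT, from dual-luciferase readout after 24 h compound treatment. Cells were HEK293 co-transfected (3 h) with human AR expression vector, androgen-responsive firefly reporter and Renilla control, in charcoal-stripped serum.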
(Reporter assays use an easily measured gene product as a stand-in for the process of interest.)

With `COCCOc1ccc(CN(c2ccc(C#N)cc2)c2nc(C(=O)NS(C)(=O)=O)c(C)s2)cc1` [Compound 566, 2-[4-cyano-N-[[4-(2-methoxyethoxy)phenyl]methyl]anilino]-5-methyl-N-methylsulfonyl-thiazole-4-carboxamide], the values for the EC50 (in experiment [1]; on human androgen receptor) were 200 nM and 1580 nM, respectively.

As for `Cc1sc(N(Cc2ccc(OCc3cccnc3)cc2)c2ccc(C#N)cc2)nc1C(=O)NS(C)(=O)=O` [Compound 567, 2-[4-cyano-N-[[4-(3-pyridylmethoxy)phenyl]methyl]anilino]-5-methyl-N-methylsulfonyl-thiazole-4-carboxamide], the EC50 in experiment [1] is 100 nM; at human androgen receptor, over 10000 nM.

With `Cc1sc(N(Cc2ccc(OCc3ccccn3)cc2)c2ccc(C#N)cc2)nc1C(=O)NS(C)(=O)=O` [Compound 568, 2-[4-cyano-N-[[4-(2-pyridylmethoxy)phenyl]methyl]anilino]-5-methyl-N-methylsulfonyl-thiazole-4-carboxamide], the figures for the EC50 (in experiment [1]; at human androgen receptor) were 158 nM and 794 nM, respectively.

As to `Cc1sc(N(Cc2ccc(OCc3ccncc3)cc2)c2ccc(C#N)cc2)nc1C(=O)NS(C)(=O)=O` [Compound 571, 2-[4-cyano-N-[[4-(4-pyridylmethoxy)phenyl]methyl]anilino]-5-methyl-N-methylsulfonyl-thiazole-4-carboxamide], the results for the EC50 (in experiment [1]; at human androgen receptor) were 158 nM and over 10000 nM, respectively.

For the molecule `Cc1sc(N(Cc2ccc(OCC3CCOCC3)cc2)c2ccc(C#N)cc2)nc1C(=O)NS(C)(=O)=O` [Compound 576, 2-[4-cyano-N-[[4-(tetrahydropyran-4-ylmethoxy)phenyl]methyl]anilino]-5-methyl-N-methylsulfonyl-thiazole-4-carboxamide], the figures for the EC50 (in experiment [1]; on human androgen receptor) were 63.1 nM and 1260 nM, respectively.

On to `Cc1sc(N(Cc2ccc(OCC(F)F)cc2)c2ccc(C#N)cc2)nc1C(=O)NS(C)(=O)=O` [Compound 577, 2-[4-cyano-N-[[4-(2,2-difluoroethoxy)phenyl]methyl]anilino]-5-methyl-N-methylsulfonyl-thiazole-4-carboxamide], for which the EC50 in experiment [1] is 63.1 nM; on human androgen receptor, 501 nM.

Take `Cc1sc(N(Cc2ccc(OCCCO)cc2)c2ccc(C#N)cc2)nc1C(=O)NS(C)(=O)=O` [Compound 579, 2-[4-cyano-N-[[4-(3-hydroxypropoxy)phenyl]methyl]anilino]-5-methyl-N-methylsulfonyl-thiazole-4-carboxamide]: the EC50 was 200 nM in experiment [1] and 7940 nM on human androgen receptor.

Take `Cc1sc(N(Cc2ccc(OCC(F)(F)F)cc2)c2ccc(C#N)cc2)nc1C(=O)NS(C)(=O)=O` [Compound 580, 2-[4-cyano-N-[[4-(2,2,2-trifluoroethoxy)phenyl]methyl]anilino]-5-methyl-N-methylsulfonyl-thiazole-4-carboxamide]: the EC50 in experiment [1] is 25.1 nM; on human androgen receptor, 631 nM.

In the case of `Cc1sc(N(Cc2ccc(OC3CCCC3)cc2)c2ccc(C#N)cc2)nc1C(=O)NS(C)(=O)=O` [Compound 581, 2-[4-cyano-N-[[4-(cyclopentoxy)phenyl]methyl]anilino]-5-methyl-N-methylsulfonyl-thiazole-4-carboxamide], the EC50 in experiment [1] is 25.1 nM; on human androgen receptor, 501 nM.

`COCCCOc1ccc(CN(c2ccc(C#N)cc2)c2nc(C(=O)NS(C)(=O)=O)c(C)s2)cc1` [Compound 582, 2-[4-cyano-N-[[4-(3-methoxypropoxy)phenyl]methyl]anilino]-5-methyl-N-methylsulfonyl-thiazole-4-carboxamide]: the EC50 was 39.8 nM in experiment [1] and 794 nM on human androgen receptor.

Take `COC[C@@H](C)Oc1ccc(CN(c2ccc(C#N)cc2)c2nc(C(=O)NS(C)(=O)=O)c(C)s2)cc1` [Compound 583, 2-[4-cyano-N-[[4-[(1R)-2-methoxy-1-methyl-ethoxy]phenyl]methyl]anilino]-5-methyl-N-methylsulfonyl-thiazole-4-carboxamide]: the EC50 in experiment [1] was 39.8 nM; on human androgen receptor it was 2000 nM.

On to `COC[C@H](C)Oc1ccc(CN(c2ccc(C#N)cc2)c2nc(C(=O)NS(C)(=O)=O)c(C)s2)cc1` [Compound 584, 2-[4-cyano-N-[[4-[(1S)-2-methoxy-1-methyl-ethoxy]phenyl]methyl]anilino]-5-methyl-N-methylsulfonyl-thiazole-4-carboxamide], for which the figures for the EC50 (in experiment [1]; at human androgen receptor) were 79.4 nM and 3160 nM, respectively.

Regarding `Cc1sc(N(Cc2cccc(OC(C)C)c2)c2ccc(C#N)cc2)nc1C(=O)NS(C)(=O)=O` [Compound 585, 2-[4-cyano-N-[(3-isopropoxyphenyl)methyl]anilino]-5-methyl-N-methylsulfonyl-thiazole-4-carboxamide], the values for the EC50 (in experiment [1]; on human androgen receptor) were 79.4 nM and 501 nM, respectively.

For `Cc1sc(N(Cc2cccc(OCC(C)C)c2)c2ccc(C#N)cc2)nc1C(=O)NS(C)(=O)=O` [Compound 586, 2-[4-cyano-N-[(3-isobutoxyphenyl)methyl]anilino]-5-methyl-N-methylsulfonyl-thiazole-4-carboxamide], the EC50 in experiment [1] was 79.4 nM; at human androgen receptor, 7940 nM.

Turning to `Cc1sc(N(Cc2ccc(C3CC3)cc2)c2ccc(C#N)cc2)nc1C(=O)NS(C)(=O)=O` [Compound 588, 2-[4-cyano-N-[(4-cyclopropylphenyl)methyl]anilino]-5-methyl-N-methylsulfonyl-thiazole-4-carboxamide], the EC50 in experiment [1] was 31.6 nM; on human androgen receptor, 200 nM.

On to `Cc1sc(N(Cc2ccc(N3CCCC3=O)cc2)c2ccc(C#N)cc2)nc1C(=O)NS(C)(=O)=O` [Compound 589, 2-[4-cyano-N-[[4-(2-oxopyrrolidin-1-yl)phenyl]methyl]anilino]-5-methyl-N-methylsulfonyl-thiazole-4-carboxamide], for which the results for the EC50 (in experiment [1]; at human androgen receptor) were 1000 nM and over 10000 nM, respectively.

For `Cc1sc(N(Cc2ccc(-c3ccccc3F)cc2)c2ccc(C#N)cc2)nc1C(=O)NS(C)(=O)=O` [Compound 590, 2-[4-cyano-N-[[4-(2-fluorophenyl)phenyl]methyl]anilino]-5-methyl-N-methylsulfonyl-thiazole-4-carboxamide], the EC50 in experiment [1] is 31.6 nM; at human androgen receptor, 158 nM.

For `Cc1sc(N(Cc2ccc(-c3ccccc3F)nc2)c2ccc(C#N)cc2)nc1C(=O)NS(C)(=O)=O` [Compound 591, 2-[4-cyano-N-[[6-(2-fluorophenyl)-3-pyridyl]methyl]anilino]-5-methyl-N-methylsulfonyl-thiazole-4-carboxamide], the values for the EC50 (in experiment [1]; at human androgen receptor) were 158 nM and 794 nM, respectively.

As for `Cc1sc(N(Cc2ccc(-c3ccc(F)cc3)nc2)c2ccc(C#N)cc2)nc1C(=O)NS(C)(=O)=O` [Compound 592, 2-[4-cyano-N-[[6-(4-fluorophenyl)-3-pyridyl]methyl]anilino]-5-methyl-N-methylsulfonyl-thiazole-4-carboxamide], the EC50 in experiment [1] was 100 nM; on human androgen receptor, 794 nM.

With `Cc1sc(N(Cc2ccc(C3CC3)nc2)c2ccc(C#N)cc2)nc1C(=O)NS(C)(=O)=O` [Compound 593, 2-[4-cyano-N-[(6-cyclopropyl-3-pyridyl)methyl]anilino]-5-methyl-N-methylsulfonyl-thiazole-4-carboxamide], the EC50 was 251 nM in experiment [1] and 200 nM on human androgen receptor.

In the case of `Cc1sc(N(Cc2ccc(-c3ccccc3F)cn2)c2ccc(C#N)cc2)nc1C(=O)NS(C)(=O)=O` [Compound 594, 2-[4-cyano-N-[[5-(2-fluorophenyl)-2-pyridyl]methyl]anilino]-5-methyl-N-methylsulfonyl-thiazole-4-carboxamide], the EC50 in experiment [1] is 79.4 nM; at human androgen receptor, 1580 nM.

Consider `Cc1sc(N(Cc2ccc(-c3ccc(F)cc3)cn2)c2ccc(C#N)cc2)nc1C(=O)NS(C)(=O)=O` [Compound 595, 2-[4-cyano-N-[[5-(4-fluorophenyl)-2-pyridyl]methyl]anilino]-5-methyl-N-methylsulfonyl-thiazole-4-carboxamide], for which the EC50 in experiment [1] was 100 nM; at human androgen receptor, 1260 nM.

The record behind these values is patent US10689354B2, “Aminoazole derivative” (Teijin Pharma Limited, priority 2015, dated 2020).
